Measured values from the NIST ThermoML archive (doi:10.1021/je050540h).

Test: xn = mol fraction of the nth substance listed
Conditions: 101 kPa, Liquid

C1CCCC1 [cyclopentane] + CCC(C)O
Conditions	mass density, 293.15 K [kg/m3]	mass density, 298.15 K [kg/m3]	mass density, 303.15 K [kg/m3]	speed of sound, 293.15 K [m/s]	speed of sound, 298.15 K [m/s]	speed of sound, 303.15 K [m/s]	viscosity, 293.15 K [mPa·s]	viscosity, 298.15 K [mPa·s]	viscosity, 303.15 K [mPa·s]
x1 = 0.0445	803.52	799.33	795.05	1225	1207	1188	3.152	2.621	2.194
x1 = 0.1036	799.5	795.2	790.81	1219	1200	1181	2.649	2.231	1.898
x1 = 0.1872	793.75	789.32	784.79	1212	1192	1172	2.121	1.811	1.56
x1 = 0.2856	787.01	782.42	777.74	1204	1183	1162	1.604	1.393	1.219
x1 = 0.3938	779.61	774.87	770.05	1197	1175	1153	1.194	1.054	0.94
x1 = 0.4873	773.26	768.43	763.52	1193	1170	1148	0.946	0.85	0.77
x1 = 0.6179	764.92	760.01	755.02	1191	1167	1144	0.692	0.636	0.588
x1 = 0.7034	759.79	754.84	749.82	1193	1169	1145	0.61	0.569	0.531
x1 = 0.8115	753.71	748.71	743.64	1200	1175	1151	0.517	0.485	0.455
x1 = 0.9113	748.61	743.57	738.46	1211	1186	1161	0.468	0.441	0.416
x1 = 0.9506	746.74	741.7	736.6	1218	1192	1167	0.451	0.426	0.403
x1 = 1	744.52	739.55	734.54	1232	1206	1180	0.438	0.416	0.394

C1CCCCC1 [cyclohexane] + CC(C)O
Conditions	mass density, 293.15 K [kg/m3]	mass density, 298.15 K [kg/m3]	mass density, 303.15 K [kg/m3]	speed of sound, 293.15 K [m/s]	speed of sound, 298.15 K [m/s]	speed of sound, 303.15 K [m/s]	viscosity, 293.15 K [mPa·s]	viscosity, 298.15 K [mPa·s]	viscosity, 303.15 K [mPa·s]
x1 = 0.0484	783.76	779.5	775.15	1160	1141	1123	2.184	1.883	1.633
x1 = 0.097	782.63	778.29	773.87	1163	1145	1126	1.988	1.722	1.504
x1 = 0.2006	780.51	776.05	771.5	1171	1152	1132	1.651	1.444	1.267
x1 = 0.3002	778.87	774.29	769.62	1180	1159	1139	1.427	1.26	1.112
x1 = 0.3977	777.63	772.95	768.19	1189	1167	1146	1.264	1.119	0.996
x1 = 0.507	776.69	771.92	767.09	1200	1178	1155	1.128	1.008	0.908
x1 = 0.6046	776.15	771.34	766.47	1211	1188	1165	1.025	0.926	0.838
x1 = 0.7058	775.92	771.11	766.23	1223	1200	1176	0.969	0.878	0.798
x1 = 0.823	776.23	771.42	766.56	1240	1216	1192	0.944	0.856	0.786
x1 = 0.9016	776.88	772.09	767.24	1254	1230	1206	0.95	0.87	0.801
x1 = 0.9521	777.52	772.74	767.92	1265	1240	1216	0.962	0.874	0.802
x1 = 1	778.62	773.92	769.19	1279	1254	1230	0.968	0.887	0.816

CCCC(C)O (stereo unspecified) [pentan-2-ol] + C1CCCC1
x2 = 0
Conditions	mass density [kg/m3]	speed of sound [m/s]	viscosity [mPa·s]
293.15 K	809.04	1250	4.001
298.15 K	805.01	1232	3.273
303.15 K	800.9	1214	2.774

CC(C)O [propan-2-ol] + C1CCCC1
x2 = 0
Conditions	mass density [kg/m3]	speed of sound [m/s]	viscosity [mPa·s]
293.15 K	785.07	1156	2.382
298.15 K	780.87	1139	2.045
303.15 K	776.6	1121	1.763

CCC(C)O (stereo unspecified) [butan-2-ol] + C1CCCC1
x2 = 0
Conditions	mass density [kg/m3]	speed of sound [m/s]	viscosity [mPa·s]
293.15 K	806.84	1230	3.623
298.15 K	802.72	1212	2.995
303.15 K	798.51	1194	2.493

C1CCCC1 [cyclopentane] + CC(C)O
Conditions	mass density, 293.15 K [kg/m3]	mass density, 298.15 K [kg/m3]	mass density, 303.15 K [kg/m3]	speed of sound, 293.15 K [m/s]	speed of sound, 298.15 K [m/s]	speed of sound, 303.15 K [m/s]	viscosity, 293.15 K [mPa·s]	viscosity, 298.15 K [mPa·s]	viscosity, 303.15 K [mPa·s]
x1 = 0.0486	782.53	778.24	773.87	1156	1138	1120	2.105	1.823	1.587
x1 = 0.091	779.96	775.6	771.15	1155	1136	1118	1.874	1.627	1.421
x1 = 0.2019	774.33	769.77	765.12	1156	1136	1116	1.425	1.254	1.11
x1 = 0.2958	769.22	764.52	759.73	1156	1135	1114	1.172	1.038	0.925
x1 = 0.3877	764.63	759.81	754.9	1158	1136	1114	0.954	0.856	0.77
x1 = 0.4823	760.38	755.45	750.44	1162	1139	1116	0.799	0.724	0.658
x1 = 0.5974	755.59	750.58	745.49	1168	1145	1121	0.641	0.588	0.542
x1 = 0.7206	750.97	745.92	740.79	1179	1154	1130	0.535	0.499	0.466
x1 = 0.8136	747.96	742.89	737.76	1190	1165	1140	0.484	0.454	0.427
x1 = 0.9219	745.39	740.33	735.2	1208	1183	1157	0.449	0.424	0.401
x1 = 0.9533	744.87	739.86	734.72	1215	1189	1164	0.443	0.419	0.398
x1 = 1	744.52	739.55	734.54	1232	1206	1180	0.438	0.416	0.394
